{"source": "patent US20050096323A1", "about": "“Diketopiperazine derivatives to inhibit thrombin” (NovoScience Pharma Inc., priority 1999, published 2005);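 as to CK (u/ml): blood collected at end of 6 h (i.v.) or 8 h (intraduodenal) ECG observation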;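 as to LDH (u/ml): blood collected at end of 6 h (i.v.) or 8 h (intraduodenal) ECG observation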", "key": {"urokinase": {"biological_target": "T1, urokinase (Homo sapiens, UniProt P00749)", "T1 construct": "purchased Sigma", "test": "Urokinase inhibition constant (Ki), fluorogenic substrate assay", "assay_type": "biochemical", "conditions": "substrate N-Cbz-Gly-Gly-Arg-AMC", "experimental": "(§1) The activity and selectivity of the present invention can be identified by determination of the inhibition constant (Ki) for serine proteases such thrombin and trypsin and fibrinolytic enzymes such as urokinase, plasmin and tissue plasminogen activator (tPA). All of enzymes are purchased from Sigma. The general assay conditions are as follows. The fluorogenic substrates are dissolved in DMSO and diluted using assay buffer containing 50 mM Tris.HCl (pH 7.8 at 25° C.), 0.1 M NaCl and 0.1% polyethylene glycol 8000 (PEG 8000). […] The assays were conducted using Hitachi F2500 spectrophotometer under ambient temperature and at the excitation and emission wavelengths of 383 nm and 455 nm, respectively. The typical progressive data of the enzymatic assays are shown in FIGS. 1-3, and the determination of inhibition constant (Ki) is shown in FIG. 4."}, "plasmin": {"biological_target": "T2, plasmin (Homo sapiens, UniProt P00747)", "T2 construct": "purchased Sigma", "T2 sequence (P00747 581-810 limits assumed, species assumed)": "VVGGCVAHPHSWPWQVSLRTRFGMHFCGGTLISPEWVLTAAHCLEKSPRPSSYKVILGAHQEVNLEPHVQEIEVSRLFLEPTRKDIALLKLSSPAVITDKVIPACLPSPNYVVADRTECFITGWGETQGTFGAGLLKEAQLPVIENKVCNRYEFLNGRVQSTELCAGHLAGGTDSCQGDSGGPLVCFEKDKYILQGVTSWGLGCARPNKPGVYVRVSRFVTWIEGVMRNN", "T2 sequence (P00747 97-580 partner limits assumed, species assumed)": "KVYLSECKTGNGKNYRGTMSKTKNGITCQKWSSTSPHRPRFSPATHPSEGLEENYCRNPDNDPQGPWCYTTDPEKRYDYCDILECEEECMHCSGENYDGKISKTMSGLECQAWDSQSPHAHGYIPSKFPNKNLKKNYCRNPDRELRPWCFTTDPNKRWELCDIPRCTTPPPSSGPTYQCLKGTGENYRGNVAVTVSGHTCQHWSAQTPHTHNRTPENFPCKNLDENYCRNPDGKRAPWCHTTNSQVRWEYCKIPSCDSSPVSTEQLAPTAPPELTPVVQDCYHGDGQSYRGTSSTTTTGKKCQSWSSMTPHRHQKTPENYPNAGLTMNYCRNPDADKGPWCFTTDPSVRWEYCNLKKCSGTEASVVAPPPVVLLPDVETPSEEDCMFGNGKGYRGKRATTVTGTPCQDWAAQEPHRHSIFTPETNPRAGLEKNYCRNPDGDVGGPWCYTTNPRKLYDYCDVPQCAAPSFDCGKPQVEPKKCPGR", "test": "Plasmin inhibition constant (Ki), fluorogenic substrate assay", "assay_type": "biochemical", "conditions": "substrate D-Ala-Leu-Lys-AMC", "experimental": "as §1"}, "[1]": {"biological_target": "T3, tissue plasminogen activator (tPA) (Homo sapiens, UniProt P00750)", "T3 construct": "purchased Sigma", "T3 sequence (P00750 36-562, species assumed)": "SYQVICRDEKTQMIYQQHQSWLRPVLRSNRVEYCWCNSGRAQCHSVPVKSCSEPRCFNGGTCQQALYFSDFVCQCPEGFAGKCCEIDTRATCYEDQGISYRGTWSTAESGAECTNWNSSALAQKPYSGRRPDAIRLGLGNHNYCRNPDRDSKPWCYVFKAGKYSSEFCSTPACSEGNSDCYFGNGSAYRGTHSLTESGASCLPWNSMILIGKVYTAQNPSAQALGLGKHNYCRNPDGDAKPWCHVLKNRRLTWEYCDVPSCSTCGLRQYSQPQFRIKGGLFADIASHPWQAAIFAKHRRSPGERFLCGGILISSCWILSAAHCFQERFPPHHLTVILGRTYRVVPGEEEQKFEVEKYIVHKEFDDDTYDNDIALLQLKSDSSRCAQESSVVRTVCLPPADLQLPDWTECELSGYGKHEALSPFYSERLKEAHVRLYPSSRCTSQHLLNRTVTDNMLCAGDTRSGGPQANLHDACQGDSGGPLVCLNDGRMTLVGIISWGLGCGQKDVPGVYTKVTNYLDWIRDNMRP", "test": "tPA inhibition constant (Ki), fluorogenic substrate assay", "assay_type": "biochemical", "conditions": "substrate Boc-L-(p-F) FPR-ANSNH-C2H5", "experimental": "as §1"}, "ICR mice": {"tested_on": "ICR mice", "test": "Clotting time (CT) of mice whole blood after administration", "assay_type": "in vivo", "procedure": "Blood samples were collected using the capillary method 0.5 h and 1.5 h after i.v. injections and 1 h and 3 h after i.g. and clotting time of whole blood was measured."}, "SD rats [2]": {"tested_on": "SD rats", "test": "RT, TT, PT, APTT and FIB in rat plasma after administration", "assay_type": "in vivo", "set-up": "FIB (Fibrillation) / RT (Clot Retraction Time) / TT (Thrombin Time): unit not given here", "conditions": "2.5 mg/kg i.v.", "experimental": "Blood was taken at 0.5 h and 1.5 h after i.v. injection and at 1 h and 3 h after i.g. and plasma RT,TT,PT,APTT and FIB were determined."}, "SD rats [3]": {"tested_on": "SD rats", "test": "Weight of deep vein thrombosis (inferior vena cava thrombi) in rats", "assay_type": "in vivo, rat", "conditions": "1.25 mg/kg i.v., 4 hours", "procedure": "The drug was administered immediately after operation and, 4 hours later, the thrombi were collected and weighted."}, "SD rats [4]": {"tested_on": "SD rats", "test": "Acute myocardial infarction by coronary artery ligation in rats", "assay_type": "in vivo, rat", "conditions": "for S point in electrocardiogram / T wave in electrocardiogram: reference drug 0.125 mg/kg i.v.", "procedure": "The drugs were administered 8 to 10 min after the coronary artery was ligated."}, "thrombin": {"biological_target": "T4, thrombin (Homo sapiens, UniProt P00734)", "T4 construct": "purchased Sigma", "test": "Thrombin inhibition constant (Ki), fluorogenic substrate assay", "assay_type": "biochemical", "conditions": "Table II, method of example 9"}, "[5]": {"conditions": "0 min after ligation (before drug)"}, "[6]": {"conditions": "serum, reference drug, 0.125 mg/kg i.v."}}, "data": [{"smiles": "CC1CNc2c(cccc2S(=O)(=O)N[C@@H](CCCNC(=N)N)C(=O)N2CC[C@@H](C)C[C@@H]2C(=O)O)C1", "note": "(stereo partly shown) [Argatroban, reference compound]", "values": [{"measurement": "Ki", "setting": "urokinase", "result": 999, "unit": "µM"}, {"measurement": "Ki", "setting": "plasmin", "result": 372, "unit": "µM"}, {"measurement": "Ki", "setting": "[1]", "result": 777, "unit": "µM"}, {"measurement": "CT (clotting time of whole blood)", "setting": "ICR mice; 2.5 mg/kg i.v. group, before administration", "result": "133.28 ± 26.21"}, {"measurement": "CT (clotting time of whole blood)", "setting": "ICR mice; 2.5 mg/kg i.v., 0.5 h", "result": "170.33 ± 28.34"}, {"measurement": "CT (clotting time of whole blood)", "setting": "ICR mice; 2.5 mg/kg i.v., 1.5 h", "result": "156.11 ± 32.08"}, {"measurement": "APTT (Activated Partial Prothromboplastin Time)", "setting": "SD rats [2]; 0.5 h", "result": "37.9 ± 10.2"}, {"measurement": "PT (Prothrombin Time)", "setting": "SD rats [2]; 0.5 h", "result": "37.9 ± 8.6"}, {"measurement": "RT (Clot Retraction Time)", "setting": "SD rats [2]; 0.5 h", "result": "91.2 ± 15.0"}, {"measurement": "TT (Thrombin Time)", "setting": "SD rats [2]; 0.5 h", "result": "72.9 ± 20.1"}, {"measurement": "APTT (Activated Partial Prothromboplastin Time)", "setting": "SD rats [2]; 1.5 h", "result": "30.1 ± 6.5"}, {"measurement": "FIB (Fibrillation)", "setting": "SD rats [2]; 1.5 h", "result": "4.0 ± 0.9"}, {"measurement": "PT (Prothrombin Time)", "setting": "SD rats [2]; 1.5 h", "result": "29.5 ± 8.5"}, {"measurement": "RT (Clot Retraction Time)", "setting": "SD rats [2]; 1.5 h", "result": "77.4 ± 10.6"}, {"measurement": "TT (Thrombin Time)", "setting": "SD rats [2]; 1.5 h", "result": "50.4 ± 12.3"}, {"measurement": "Thrombi (mg) Dry weight", "setting": "SD rats [3]", "result": "6.26 ± 3.72", "unit": "mg"}, {"measurement": "Thrombi (mg) Wet weight", "setting": "SD rats [3]", "result": "18.04 ± 8.99", "unit": "mg"}, {"measurement": "S point in electrocardiogram", "setting": "SD rats [4]; [5]", "result": "0.35 ± 0.16"}, {"measurement": "T wave in electrocardiogram", "setting": "SD rats [4]; [5]", "result": "0.23 ± 0.16"}, {"measurement": "S point in electrocardiogram", "setting": "SD rats [4]; 10 min after ligation", "result": "0.36 ± 0.20"}, {"measurement": "T wave in electrocardiogram", "setting": "SD rats [4]; 10 min after ligation", "result": "0.21 ± 0.18"}, {"measurement": "S point in electrocardiogram", "setting": "SD rats [4]; 30 min after ligation", "result": "0.26 ± 0.15"}, {"measurement": "T wave in electrocardiogram", "setting": "SD rats [4]; 30 min after ligation", "result": "0.16 ± 0.18"}, {"measurement": "S point in electrocardiogram", "setting": "SD rats [4]; 6 h after ligation", "result": "0.19 ± 0.10"}, {"measurement": "T wave in electrocardiogram", "setting": "SD rats [4]; 6 h after ligation", "result": "0.11 ± 0.10"}, {"measurement": "Infarction Area (%)", "setting": "SD rats [4]; reference drug, 0.125 mg/kg i.v.", "result": "23.55 ± 7.95", "unit": "%"}, {"measurement": "CK (u/ml)", "setting": "SD rats [4]; [6]", "result": "55.92 ± 11.46", "unit": "u/ml"}, {"measurement": "LDH (u/ml)", "setting": "SD rats [4]; [6]", "result": "6259.5 ± 308.6", "unit": "u/ml"}]}, {"smiles": "CCC1CCN2C(=O)C(CCCNC(=N)N)N(S(=O)(=O)c3cccc4c3NCC(C)C4)C(=O)C2C1", "note": "(stereo not shown) [compound 2]", "values": [{"measurement": "Ki", "setting": "thrombin", "result": 0.061, "unit": "µM"}]}, {"smiles": "CC1CNc2c(cccc2S(=O)(=O)N2C(=O)C3CC(c4ccccc4)CCN3C(=O)C2CCCNC(=N)N)C1", "note": "(stereo not shown) [compound 3]", "values": [{"measurement": "Ki", "setting": "thrombin", "result": 0.91, "unit": "µM"}]}, {"smiles": "CC1CNc2c(cccc2S(=O)(=O)N2C(=O)C3CC(C(C)(C)C)CCN3C(=O)C2CCCNC(=N)N)C1", "note": "(stereo not shown) [compound 4]", "values": [{"measurement": "Ki", "setting": "thrombin", "result": 1.58, "unit": "µM"}]}]}
